Holding throughout (format): functional
For experiment [1], the system named is P388. Description: In vivo antitumor activity against mouse P388 cells at 46 to 185 ug/kg relative to control.
The subject of experiment [2] is P388. The experiment can be described thus: Cytotoxicity against mouse P388 cells.
The subject of experiment [3] is P388. The experiment can be described thus: In vivo antitumor activity against mouse P388 cells assessed as cell life extension at 80 ug/kg.

The structures appear in SMILES notation. ≈ marks a conversion by molar mass, not a printed value.

As a reminder, the T/C is the ratio of treated to control. In experiment [1], `CCCC(=O)O[C@H]1C[C@H]2C[C@@H](O)CC(=O)O[C@@H]([C@@H](C)O)C[C@@H]3C/C(=C\C(=O)OC)[C@H](OC(C)=O)[C@@](O)(O3)C(C)(C)/C=C/[C@H]3C/C(=C\C(=O)OC)C[C@@H](C[C@](O)(O2)C1(C)C)O3` [BRYOSTATIN 6] displayed a T/C of 139%. This compound yielded an ED50 in experiment [2] of 1 ×10⁻⁵ ug/ml.
Take `CCCC(=O)O[C@H]1/C(=C/C(=O)OC)C[C@H]2C[C@H]([C@@H](C)O)OC(=O)C[C@H](O)C[C@@H]3C[C@H](OC(C)=O)C(C)(C)[C@](O)(C[C@@H]4C/C(=C/C(=O)OC)C[C@H](/C=C/C(C)(C)[C@]1(O)O2)O4)O3` [BRYOSTATIN 9]: in experiment [3], the Activity came to 40%. For the same compound, the EC50 in experiment [2] (Mus musculus, P388, read-out: ED50 (the source's name)) stood at 1.2 ng/mL (≈ 1.41 nM).
